Laboratory results reported in ChEMBL document CHEMBL1201862, “PubChem BioAssay data set” (2004).
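Results reflect a 48-hour exposure of cells in 96-well plates to compound at five concentrations. The concentration for 50% growth inhibition is given as GI50.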 Activity calls are given as the source filed them. Cut-off read from the data, not from the text of the source: active = GI50 up to about 1.1 µM and inactive = higher.

Tests used:
Experiment in all cases: NCI-60 cell line screen, 48 h
CAKI-1 = test system: CAKI-1
RXF 631 = test system: RXF 631
HCC 2998 = test system: HCC 2998
SF-295 = test system: SF-295
XF498 = test system: XF498
RXF 393 = test system: RXF 393
M19-MEL = test system: M19-MEL
NCI-H226 = test system: NCI-H226
NCI-H522 = test system: NCI-H522
HOP-62 = test system: HOP-62
SN12C = test system: SN12C
SR = test system: SR
SF-539 = test system: SF-539
A498 = test system: A498
SK-MEL-2 = test system: SK-MEL-2
786-0 = test system: 786-0
DLD-1 = test system: DLD-1
K562 = test system: K562
HOP-92 = test system: HOP-92
DU-145 = test system: DU-145
SNB-19 = test system: SNB-19
OVCAR-5 = test system: OVCAR-5
LOX IMVI = test system: LOX IMVI
COLO 205 = test system: COLO 205
HOP-18 = test system: HOP-18
UACC-257 = test system: UACC-257
T47D = test system: T47D
CCRF-CEM = test system: CCRF-CEM
HCT-116 = test system: HCT-116
HL-60 = test system: HL-60
HT-29 = test system: HT-29
SW-620 = test system: SW-620
HCT-15 = test system: HCT-15
UACC-62 = test system: UACC-62
RPMI-8226 = test system: RPMI-8226
MDA-N = test system: MDA-N
OVCAR-3 = test system: OVCAR-3
M14 = test system: M14
SNB-78 = test system: SNB-78
TK-10 = test system: TK-10
MOLT-4 = test system: MOLT-4
KM12 = test system: KM12
SNB-75 = test system: SNB-75
UO-31 = test system: UO-31
DMS-114 = test system: DMS-114
NCI-H460 = test system: NCI-H460
U-251 = test system: U-251
ACHN = test system: ACHN
OVCAR-4 = test system: OVCAR-4
IGROV-1 = test system: IGROV-1
SK-MEL-28 = test system: SK-MEL-28
MCF7 = test system: MCF7
LXFL 529 = test system: LXFL 529
MDA-MB-231 = test system: MDA-MB-231
SK-OV-3 = test system: SK-OV-3
PC-3 = test system: PC-3
Malme-3M = test system: Malme-3M
SF-268 = test system: SF-268
Hs-578T = test system: Hs-578T
NCI/ADR-RES = test system: NCI/ADR-RES
OVCAR-8 = test system: OVCAR-8
DMS-273 = test system: DMS-273
KM-20L2 = test system: KM-20L2
EKVX = test system: EKVX
NCI-H23 = test system: NCI-H23
MDA-MB-435 = test system: MDA-MB-435
BT-549 = test system: BT-549
A549 = test system: A549
SK-MEL-5 = test system: SK-MEL-5

c1ccc2c(c1)[nH]c1c2nc2ccccn21
GI50 (CAKI-1): 67.9 µM (inactive)
GI50 (RXF 631): > 100 µM (inactive)
GI50 (HCC 2998): > 100 µM (inactive)
GI50 (SF-295): > 100 µM (inactive)
GI50 (XF498): > 100 µM (inactive)
GI50 (RXF 393): > 100 µM (inactive)
GI50 (M19-MEL): > 100 µM (inactive)
GI50 (NCI-H226): > 100 µM (inactive)
GI50 (NCI-H522): > 100 µM (inactive)
GI50 (HOP-62): > 100 µM (inactive)
GI50 (SN12C): > 100 µM (inactive)
GI50 (SR): > 100 µM (inactive)
GI50 (SF-539): > 100 µM (inactive)
GI50 (A498): 85.5 µM (inactive)
GI50 (SK-MEL-2): > 100 µM (inactive)
GI50 (786-0): 81.3 µM (inactive)
GI50 (DLD-1): 66.1 µM (inactive)
GI50 (K562): 74.3 µM (inactive)

COc1ccc(/C=C\c2cc(OC)c(OC)c(OC)c2)cc1OC(=O)CC(N)C(=O)O (stereo not given)
GI50 (HOP-92): 0.00052 µM (active)
GI50 (DU-145): 0.00293 µM (active)
GI50 (SNB-19): 0.0118 µM (active)
GI50 (OVCAR-5): 0.327 µM (active)
GI50 (LOX IMVI): 0.00254 µM (active)
GI50 (COLO 205): 0.635 µM (active)
GI50 (HOP-18): 0.703 µM (active)
GI50 (UACC-257): 0.00171 µM (active)
GI50 (T47D): < 0.01 µM (active)
GI50 (CCRF-CEM): 0.000418 µM (active)
GI50 (CAKI-1): 0.307 µM (active)
GI50 (HCC 2998): 0.106 µM (active)
GI50 (HCT-116): 0.00103 µM (active)
GI50 (SF-295): 0.0021 µM (active)
GI50 (HL-60): 0.000899 µM (active)
GI50 (HT-29): 0.865 µM (active)
GI50 (XF498): 0.00239 µM (active)
GI50 (SW-620): 0.00135 µM (active)
GI50 (RXF 393): 0.00166 µM (active)
GI50 (HCT-15): 0.00258 µM
GI50 (M19-MEL): 0.00135 µM (active)
GI50 (UACC-62): 0.00113 µM (active)
GI50 (RPMI-8226): 0.00148 µM (active)
GI50 (MDA-N): 0.000166 µM (active)
GI50 (NCI-H226): 0.054 µM (active)
GI50 (OVCAR-3): 0.00224 µM (active)
GI50 (NCI-H522): 0.00132 µM (active)
GI50 (HOP-62): 0.00382 µM (active)
GI50 (M14): 0.00247 µM (active)
GI50 (SNB-78): 0.00208 µM (active)
GI50 (TK-10): 0.519 µM (active)
GI50 (SN12C): 0.00521 µM (active)
GI50 (SR): 0.00577 µM (active)
GI50 (SF-539): 0.00222 µM (active)
GI50 (MOLT-4): 0.00366 µM (active)
GI50 (KM12): 0.00365 µM (active)
GI50 (SNB-75): 0.000459 µM (active)
GI50 (UO-31): 0.00759 µM (active)
GI50 (DMS-114): 0.00122 µM (active)
GI50 (A498): 0.00269 µM (active)
GI50 (NCI-H460): 0.00219 µM (active)
GI50 (U-251): 0.00262 µM (active)
GI50 (ACHN): 0.00437 µM (active)
GI50 (OVCAR-4): 0.189 µM (active)
GI50 (IGROV-1): 0.0124 µM (active)
GI50 (SK-MEL-28): 0.000597 µM (active)
GI50 (MCF7): 0.00733 µM (active)
GI50 (LXFL 529): 0.00191 µM (active)
GI50 (MDA-MB-231): 0.00119 µM (active)
GI50 (SK-OV-3): 0.00423 µM (active)
GI50 (PC-3): 0.000776 µM (active)
GI50 (786-0): 0.0111 µM (active)
GI50 (Malme-3M): 0.00258 µM (active)
GI50 (SF-268): 0.00305 µM (active)
GI50 (Hs-578T): 0.000426 µM (active)
GI50 (NCI/ADR-RES): 0.000224 µM (active)
GI50 (OVCAR-8): 0.00301 µM (active)
GI50 (DLD-1): 0.0041 µM (active)
GI50 (K562): 0.000321 µM (active)
GI50 (DMS-273): 0.00195 µM (active)
GI50 (KM-20L2): 3.7 µM (inactive)
GI50 (EKVX): 34.8 µM (inactive)
GI50 (NCI-H23): 0.0021 µM (active)
GI50 (MDA-MB-435): 0.000146 µM (active)
GI50 (BT-549): 0.00646 µM (active)
GI50 (A549): 0.00449 µM (active)

Clc1ccc(SC(/C=C/NNC2=NN=C(c3ccccc3)C(c3ccccc3)N2)c2ccccc2)cc1 (stereo not given)
GI50 (HOP-92): 7.98 µM (inactive)
GI50 (SK-MEL-5): 14.7 µM (inactive)
GI50 (SNB-19): 80.5 µM (inactive)
GI50 (OVCAR-5): 33.8 µM (inactive)
GI50 (LOX IMVI): 21.9 µM (inactive)
GI50 (COLO 205): 20.8 µM (inactive)
GI50 (UACC-257): 21.7 µM (inactive)
GI50 (CCRF-CEM): 17.1 µM (inactive)
GI50 (CAKI-1): 12.3 µM (inactive)
GI50 (RXF 631): 25 µM (inactive)
GI50 (HCC 2998): 19.7 µM (inactive)
GI50 (HCT-116): 16.1 µM (inactive)
GI50 (SF-295): 19.3 µM (inactive)
GI50 (HL-60): 14.6 µM (inactive)
GI50 (HT-29): 15.1 µM (inactive)
GI50 (XF498): 18.7 µM (inactive)
GI50 (SW-620): 33.5 µM (inactive)
GI50 (RXF 393): 6.28 µM (inactive)
GI50 (HCT-15): 26.9 µM
GI50 (M19-MEL): 36.5 µM (inactive)
GI50 (UACC-62): 27.6 µM (inactive)
GI50 (RPMI-8226): 6.64 µM (inactive)
GI50 (NCI-H226): 13.4 µM (inactive)
GI50 (OVCAR-3): 11.8 µM (inactive)
GI50 (NCI-H522): 17.9 µM (inactive)
GI50 (HOP-62): 33 µM (inactive)
GI50 (M14): 18.5 µM (inactive)
GI50 (SNB-78): 32.7 µM (inactive)
GI50 (TK-10): 36.5 µM (inactive)
GI50 (SN12C): 29.4 µM (inactive)
GI50 (SF-539): 26.4 µM (inactive)
GI50 (MOLT-4): 11.2 µM (inactive)
GI50 (KM12): 21 µM (inactive)
GI50 (SNB-75): 15.2 µM (inactive)
GI50 (UO-31): 13.2 µM (inactive)
GI50 (DMS-114): 18.5 µM (inactive)
GI50 (A498): 28.2 µM (inactive)
GI50 (NCI-H460): 26.2 µM (inactive)
GI50 (SK-MEL-2): 18.7 µM (inactive)
GI50 (U-251): 31.2 µM (inactive)
GI50 (ACHN): 21 µM (inactive)
GI50 (OVCAR-4): 17.9 µM (inactive)
GI50 (IGROV-1): 49.3 µM (inactive)
GI50 (SK-MEL-28): 20.8 µM (inactive)
GI50 (SK-OV-3): 68.1 µM (inactive)
GI50 (786-0): 28.2 µM (inactive)
GI50 (Malme-3M): 18.2 µM (inactive)
GI50 (SF-268): 14.4 µM (inactive)
GI50 (OVCAR-8): 28.2 µM (inactive)
GI50 (DLD-1): 23.4 µM (inactive)
GI50 (K562): 18.2 µM (inactive)
GI50 (DMS-273): 26.2 µM (inactive)
GI50 (KM-20L2): 19.9 µM (inactive)
GI50 (EKVX): 26.9 µM (inactive)
GI50 (NCI-H23): 10.4 µM (inactive)
GI50 (A549): 29.2 µM (inactive)
